From patent publication US4276412A, “3-Trehalosamine compounds” (The Upjohn Company, priority 1979, dated 1981)
≈ marks a conversion by molar mass, not a printed value.

Key:
[1] = test system: D. pneumoniae UC 41; assay: Minimal Inhibitory Concentration; type: cell-based; settings: Streptococcus pneumoniae, UC41
[2] = test system: Staphylococcus aureus; assay: antibacterial activity (in words); type: cell-based
[3] = test system: S. typhi UC 215; assay: Minimal Inhibitory Concentration; type: cell-based; settings: Salmonella enterica, read-out: Minimal Inhibitory Concentration
[4] = test system: P. mirabilis UC 6671; assay: Minimal Inhibitory Concentration; type: cell-based; settings: Proteus mirabilis, UC6671
[5] = test system: P. vulgaris UC 93; assay: Minimal Inhibitory Concentration; type: cell-based; settings: Proteus vulgaris, UC93
[6] = test system: S. aureus UC 76; assay: Minimal Inhibitory Concentration; type: cell-based; settings: Staphylococcus aureus, UC76
[7] = test system: S. schottmuelleri UC 126; assay: Minimal Inhibitory Concentration; type: cell-based
[8] = test system: S. faecalis UC 694; assay: Minimal Inhibitory Concentration; type: cell-based; settings: Enterococcus faecalis, UC694
[9] = test system: B. subtilis; assay: antibacterial activity (in words); type: cell-based
[10] = test system: Ps. aeruginosa UC 95; assay: Minimal Inhibitory Concentration; type: cell-based; settings: Pseudomonas aeruginosa, UC95
[11] = test system: E. coli UC 45; assay: Minimal Inhibitory Concentration; type: cell-based; settings: Escherichia coli, UC45
[12] = test system: S. marcescens UC 131; assay: Minimal Inhibitory Concentration; type: cell-based; settings: Serratia marcescens, UC131
[13] = test system: S. pyogenes UC 152; assay: Minimal Inhibitory Concentration; type: cell-based; settings: Streptococcus pyogenes, UC152
[14] = stability at various pH; type: physicochemical; settings: any pH from about 1 to about 11
[15] = test system: various Gram-positive and Gram-negative bacteria; assay: antibacterial activity (in words); type: cell-based; settings: disc assay
Description: (§1) The testing was done on a standard microbiological disc assay system using 0.1 ml per 12.7 mm disc.

[16] = test system: S. flexneri UC 143; assay: Minimal Inhibitory Concentration; type: cell-based; settings: Shigella flexneri, UC143
[17] = test system: B. subtilis (UC 564); assay: biounit assay against B. subtilis (paper disc, zone of growth inhibition); type: cell-based; settings: IR-45 (OH--) column fractions after lyophilization; 12.7 mm disc, 0.08 ml, 32° C., ca 18 hours
Description: The active fractions during the recovery and purification process are determined by assay against the microorganism Bacillus subtilis. The assay procedure is as follows:
5.0 mls culture are centrifuged (4000×g, 10'). Serial dilutions of the supernatant solution are performed in 0.1 M phosphate buffer, pH 7.7. […] The trays are incubated at 32° C. for ca 18 hours and the zone of growth inhibition recorded.
The designation BU, used herein, means biounit. A biounit is defined as the concentration of the antibiotic which gives a 20 mm zone of inhibition.

[18] = Solubilities; type: physicochemical
[19] = test system: Klebsiella pneumoniae UC 57; assay: standard microbiological disc assay, zone size; type: cell-based; settings: 0.1 ml per 12.7 mm disc
Description: as §1

[20] = test system: Escherichia coli UC 51; assay: standard microbiological disc assay, zone size; type: cell-based; settings: 0.1 ml per 12.7 mm disc
Description: as §1

[21] = test system: Sarcina lutea UC 130; assay: standard microbiological disc assay, zone size; type: cell-based; settings: 0.1 ml per 12.7 mm disc
Description: as §1

[22] = test system: Bacillus subtilis UC 564; assay: standard microbiological disc assay, zone size; type: cell-based; settings: 0.1 ml per 12.7 mm disc
Description: as §1

[23] = test system: Proteus vulgaris UC 93; assay: standard microbiological disc assay, zone size; type: cell-based; settings: 0.1 ml per 12.7 mm disc
Description: as §1

[24] = test system: Staphylococcus aureus UC 80; assay: standard microbiological disc assay, zone size; type: cell-based; settings: 0.1 ml per 12.7 mm disc
Description: as §1

[25] = test system: Bacillus subtilis UC 6033; assay: standard microbiological disc assay, zone size; type: cell-based; settings: 0.1 ml per 12.7 mm disc
Description: as §1

[26] = test system: Staphylococcus aureus UC 3665; assay: standard microbiological disc assay, zone size; type: cell-based; settings: 0.1 ml per 12.7 mm disc
Description: as §1

[27] = test system: Pseudomonas aeruginosa UC 95; assay: standard microbiological disc assay, zone size; type: cell-based; settings: 0.1 ml per 12.7 mm disc
Description: as §1

[28] = test system: K. pneumoniae UC 58; assay: Minimal Inhibitory Concentration; type: cell-based; settings: Klebsiella pneumoniae, UC58

For `N[C@@H]1[C@@H](O)[C@@H](O[C@H]2O[C@H](CO)[C@@H](O)[C@H](O)[C@H]2O)O[C@H](CO)[C@H]1O` [3-Trehalosamine], the MIC [1] was 62.5 µg/mL (≈ 183 µM), the antibacterial activity [2] was “active against Staphylococcus aureus” and the MIC [3] was > 1000 µg/mL. The MIC [4] was > 1000 µg/mL, the MIC [5] was > 1000 µg/mL and the MIC [6] was > 1000 µg/mL. The MIC [7] was > 1000 µg/mL, the MIC [8] was > 1000 µg/mL and the antibacterial activity [9] was “active against B. subtilis”. The MIC [10] was > 1000 µg/mL, the MIC [11] was > 1000 µg/mL and the MIC [12] was > 1000 µg/mL. The MIC [13] was 1000 µg/mL (≈ 2930 µM), the stability [14] was “stable” and the antibacterial activity [15] was “active against various Gram-positive and Gram-negative bacteria”. For the same compound, the MIC [16] was > 1000 µg/mL, the “potency vs Bs (biounits; BU = concentration giving a 20 mm zone of inhibition)” value [17] was 80 BU/mg and the solubility ([18]; any pH from about 1 to about 11) was “soluble”. For the same compound, the solubility ([18]; water, dilute acid, dilute base) was “soluble in water, dilute acid and dilute base”, the “Zone Size” value [19] was 0 mm and the “Zone Size” value [20] was 0 mm. The “Zone Size” value [21] was 0 mm, the “Zone Size” value [22] was 36.5 mm and the “Zone Size” value [23] was 0 mm. The “Zone Size” value [24] was 32 mm, the “Zone Size” value [25] was 24 mm and the “Zone Size” value [26] was 30 mm. The “Zone Size” value [27] was 0 mm and the MIC [28] was > 1000 µg/mL.
